Source: the supplement of paper PMC11061612

What was measured:
Assay in all cases: combination Emax (second highest fraction inhibited in the dose matrix, 72 h); higher = more inhibition; extreme values may be limits of the assay
[1] = system: AMO-1 (Plasma Cell Myeloma)
Procedure, shortened: (§1)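 Cell lines in DMEM/F12 or RPMI with 10% FBS were plated in 1536-well plates, held 24 hours at 37°C, 5% CO2, then given two-drug dose matrices for 72 hours (DMSO typically 0.2%). Viability was read by CellTiter-Glo 2.0 luminescence and scaled as inhibition from 0 (vehicle wells) to 1 (blank wells). Combination Emax is the second-highest inhibition in the matrix; Bliss excess is observed combination effect minus expected EA + EB − EA·EB, EA and EB being single-agent effects.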

[2] = system: BT-549 (Breast Carcinoma)
Procedure, shortened: as §1

[3] = system: Caov-4 (Ovarian Carcinoma)
Procedure, shortened: as §1

[4] = system: EoL-1-cell (Acute Myeloid Leukemia)
Procedure, shortened: as §1

[5] = system: HGC-27 (Gastric Carcinoma)
Procedure, shortened: as §1

[6] = system: KARPAS-299 (T-Cell Non-Hodgkin's Lymphoma)
Procedure, shortened: as §1

[7] = system: KMOE-2 (Acute Myeloid Leukemia)
Procedure, shortened: as §1

[8] = system: MIA-PaCa-2 (Pancreatic Carcinoma)
Procedure, shortened: as §1

[9] = system: MLMA (Other Blood Carcinomas)
Procedure, shortened: as §1

NB69 (Neuroblastoma) = system: NB69 (Neuroblastoma)
Procedure, shortened: as §1

[10] = system: NCI-H1915 (Non-Small Cell Lung Carcinoma)
Procedure, shortened: as §1

[11] = system: NCI-H727 (Other Solid Carcinomas)
Procedure, shortened: as §1

[12] = system: NUGC-3 (Gastric Carcinoma)
Procedure, shortened: as §1

[13] = system: OVCAR-4 (Ovarian Carcinoma)
Procedure, shortened: as §1

[14] = system: PANC-04-03 (Pancreatic Carcinoma)
Procedure, shortened: as §1

PWR-1E (Non-Cancerous) = system: PWR-1E (Non-Cancerous)
Procedure, shortened: as §1

[15] = system: RF-48 (B-Cell Non-Hodgkin's Lymphoma)
Procedure, shortened: as §1

UACC-62 (Melanoma) = system: UACC-62 (Melanoma)
Procedure, shortened: as §1

[16] = system: VA-ES-BJ (Other Solid Carcinomas)
Procedure, shortened: as §1

YH-13 (Glioblastoma) = system: YH-13 (Glioblastoma)
Procedure, shortened: as §1

SMILES | combination Emax [1] | combination Emax [2] | combination Emax [3] | combination Emax [4] | combination Emax [5] | combination Emax [6] | combination Emax [7] | combination Emax [8] | combination Emax [9] | combination Emax (NB69 (Neuroblastoma)) | combination Emax [10] | combination Emax [11] | combination Emax [12] | combination Emax [13] | combination Emax [14] | combination Emax (PWR-1E (Non-Cancerous)) | combination Emax [15] | combination Emax (UACC-62 (Melanoma)) | combination Emax [16] | combination Emax (YH-13 (Glioblastoma))
CC(=O)c1c(C)c2cnc(Nc3ccc(N4CCNCC4)cn3)nc2n(C2CCCC2)c1=O [Palbociclib] + Cn1cnc2c(F)c(Nc3ccc(Br)cc3Cl)c(C(=O)NOCCO)cc21 [Selumetinib] (first compound max 10 µM, 7x7, partner max 10 µM) | 0.557 | 0.226 | 0.585 | 0.952 | 0.617 | 0.594 | 1 | 0.604 | 0.769 | 0.988 | 0.782 | 0.636 | 0.533 | 0.286 | 0.404 | 0.142 | 0.277 | 0.764 | 0.158 | 0.387
C[C@@H]1COCCN1c1cc(C2([S@](C)(=N)=O)CC2)nc(-c2ccnc3[nH]ccc23)n1 [AZD6738] + O=C(c1cc(Cc2n[nH]c(=O)c3ccccc23)ccc1F)N1CCN(C(=O)C2CC2)CC1 [Olaparib] (first compound max 10 µM, 7x7, partner max 10 µM) | 0.866 | 0.446 | 0.969 | 0.992 | 0.902 | 0.98 | 0.616 | 0.708 | 0.988 | 0.94 | 0.557 | 0.384 | 0.778 | 0.664 | 0.515 | 0.842 | 0.56 | 0.509 | 0.64 | 0.611
CC1(C)CCC(CN2CCN(c3ccc(C(=O)NS(=O)(=O)c4ccc(NCC5CCOCC5)c([N+](=O)[O-])c4)c(Oc4cnc5[nH]ccc5c4)c3)CC2)=C(c2ccc(Cl)cc2)C1 [Venetoclax] + C=CCn1c(=O)c2cnc(Nc3ccc(N4CCN(C)CC4)cc3)nc2n1-c1cccc(C(C)(C)O)n1 [AZD1775] (first compound max 1 µM, partner max 1 µM) | 0.921 | 0.778 | 0.811 | 1 | 0.54 | 0.951 | 0.966 | 0.795 | 0.945 | 0.849 | 0.634 | 0.689 | 0.596 | 0.588 | 0.466 | 0.548 | 0.667 | 0.578 | 0.503 | 0.381
CC1(C)CCC(CN2CCN(c3ccc(C(=O)NS(=O)(=O)c4ccc(NCC5CCOCC5)c([N+](=O)[O-])c4)c(Oc4cnc5[nH]ccc5c4)c3)CC2)=C(c2ccc(Cl)cc2)C1 [Venetoclax] + C[C@@H](Nc1cc(F)cc(F)c1)c1cc(C(=O)N(C)C)cc2c(=O)cc(N3CCOCC3)oc12 [AZD8186] (first compound max 1 µM, 7x7, partner max 3 µM) | 0.842 | 0.258 | 0.171 | 1 | 0.54 | 0.829 | 0.323 | 0.153 | 0.89 | 0.998 | 0.118 | 0.274 | 0.183 | 0.138 | 0.149 | 0.173 | 0.345 | 0.398 | 0.149 | 0.441
CS(=O)(=O)CCNCc1ccc(-c2ccc3ncnc(Nc4ccc(OCc5cccc(F)c5)c(Cl)c4)c3c2)o1 [Lapatinib] + C[C@@H](Oc1cc(-c2cnn(C3CCNCC3)c2)cnc1N)c1c(Cl)ccc(F)c1Cl [Crizotinib] (first compound max 10 µM, 7x7, partner max 10 µM) | 0.958 | 0.609 | 0.849 | 0.988 | 0.983 | 0.978 | 0.911 | 0.96 | 0.899 | 0.949 | 0.65 | 0.942 | 0.96 | 0.727 | 0.594 | 0.928 | 0.477 | 0.66 | 0.756 | 0.809
CS(=O)(=O)CCNCc1ccc(-c2ccc3ncnc(Nc4ccc(OCc5cccc(F)c5)c(Cl)c4)c3c2)o1 [Lapatinib] + NC1(c2ccc(-c3nc4ccn5c(=O)[nH]nc5c4cc3-c3ccccc3)cc2)CCC1 [MK-2206] (first compound max 10 µM, 7x7, partner max 10 µM) | 0.963 | 0.583 | 0.878 | 0.973 | 0.988 | 0.926 |  | 0.929 | 0.945 | 0.941 |  | 0.88 | 0.91 |  | 0.505 | 0.836 | 0.658 | 0.516 |  | 0.909
Cc1c2c(nn1C)CSCc1cc(n(C)n1)CSc1cc(c3ccccc3c1)OCCCc1c(C(=O)O)n(C)c3c-2c(Cl)ccc13 [AZD5991] + Cc1cc2ncnn2cc1Nc1ncc2c(n1)n(C1CCOCC1)c(=O)n2C [AZD7648] (first compound max 1 µM, 7x7, partner max 10 µM) | 1 | 0.329 | 0.57 | 1 | 0.603 | 1 | 0.74 | 0.354 | 0.439 | 0.779 | 0.3 | 0.277 | 0.428 | 0.255 | 0.342 | 0.247 | 0.262 | 0.859 | 0.221 | 0.351
Cc1c2c(nn1C)CSCc1cc(n(C)n1)CSc1cc(c3ccccc3c1)OCCCc1c(C(=O)O)n(C)c3c-2c(Cl)ccc13 [AZD5991] + C[C@@H]1COCCN1C2=NC(=NC(=C2)C3(CC3)[S@](=N)(=O)C)C4=C5C=CNC5=NC=C4 [AZD6738] (first compound max 1 µM, 7x7, partner max 10 µM) | 1 | 0.659 | 0.914 | 1 | 0.849 | 1 | 0.873 | 0.706 | 0.697 | 0.967 | 0.504 | 0.412 | 0.69 | 0.713 | 0.479 | 0.985 | 0.545 | 0.939 | 0.686 | 0.46
Cc1c2c(nn1C)CSCc1cc(n(C)n1)CSc1cc(c3ccccc3c1)OCCCc1c(C(=O)O)n(C)c3c-2c(Cl)ccc13 [AZD5991] + CN(C)CCCOc1ccc(-c2ccc3ncc4c(c3c2)n(C2CCOCC2)c(=O)n4C)cn1 [AZD0156] (first compound max 1 µM, 7x7, partner max 1 µM) | 1 | 0.334 | 0.511 | 0.999 | 0.51 | 0.978 | 0.797 | 0.289 | 0.397 | 0.666 | 0.439 | 0.289 | 0.369 | 0.279 | 0.24 | 0.29 |  | 0.812 | 0.243 | 0.254
CCc1c2c(nc3ccc(O)cc13)-c1cc3c(c(=O)n1C2)COC(=O)[C@]3(O)CC [SN-38] + O=C(c1cc(Cc2n[nH]c(=O)c3ccccc23)ccc1F)N1CCN(C(=O)C2CC2)CC1 [Olaparib] (first compound max 0.3 µM, 7x7, partner max 10 µM) | 0.952 | 0.636 | 0.937 | 0.99 | 0.852 | 0.896 | 0.983 | 0.935 | 0.858 | 0.967 |  | 0.256 |  | 0.24 | 0.465 |  | 0.775 | 0.843 | 0.818 | 0.58
Cc1c2c(nn1C)CSCc1cc(n(C)n1)CSc1cc(c3ccccc3c1)OCCCc1c(C(=O)O)n(C)c3c-2c(Cl)ccc13 [AZD5991] + CC(=O)O[C@H]1C(=O)[C@@]2(C)[C@H]([C@H](OC(=O)c3ccccc3)[C@]3(O)C[C@H](OC(=O)[C@H](O)[C@@H](NC(=O)c4ccccc4)c4ccccc4)C(C)=C1C3(C)C)[C@]1(OC(C)=O)CO[C@@H]1C[C@@H]2O [Paclitaxel] (first compound max 1 µM, 7x7, partner max 3 µM) | 1 | 0.864 | 0.833 | 1 |  | 1 |  | 0.807 | 0.872 | 1 |  | 0.136 |  |  | 0.52 |  | 0.807 | 0.831 |  | 0.994
CC1(C)CCC(CN2CCN(c3ccc(C(=O)NS(=O)(=O)c4ccc(NCC5CCOCC5)c([N+](=O)[O-])c4)c(Oc4cnc5[nH]ccc5c4)c3)CC2)=C(c2ccc(Cl)cc2)C1 [Venetoclax] + CS(=O)(=O)CCNCc1ccc(-c2ccc3ncnc(Nc4ccc(OCc5cccc(F)c5)c(Cl)c4)c3c2)o1 [Lapatinib] (first compound max 1 µM, 7x7, partner max 10 µM) | 0.882 | 0.249 | 0.304 | 0.986 |  | 0.337 |  | 0.272 | 0.117 | 0.598 |  | 0.246 |  |  | 0.291 |  | 0.34 | 0.256 |  | 0.0901
C[C@@H](Nc1cc(F)cc(F)c1)c1cc(C(=O)N(C)C)cc2c(=O)cc(N3CCOCC3)oc12 [AZD8186] + C1CN(CCC1(C(=O)N[C@@H](CCO)C2=CC=C(C=C2)Cl)N)C3=NC=NC4=C3C=CN4 [AZD5363] (first compound max 10 µM, 7x7, partner max 10 µM) | 0.506 | 0.343 | 0.309 | 0.816 |  | 0.263 |  | 0.258 | 0.623 | 0.659 |  | 0.411 |  |  | 0.275 |  | 0.432 | 0.514 |  | 0.644
